Assay [1] deals with T1, Indoleamine 2,3-dioxygenase 1 (Homo sapiens, UniProt P14902). Briefly: Inhibition of recombinant human IDO1 assessed as N-formylkynurenine formation using L-tryptophan as substrate measured after 1 hr by UV-vis spectrophotometric analysis.
The target of assay [2] is T1, Indoleamine 2,3-dioxygenase 1. The assay can be described thus: Inhibition of human IDO1 in IFN-gamma-induced human MDA-MB-231 cells assessed as N-formylkynurenine formation using L-tryptophan as substrate pretreated for 4 hrs followed substrate addition measured after 5 hrs by UV-vis spectrophotometric analysis. The format is cell-based.
The target in assay [3] is Tryptophan 2,3-dioxygenase (Homo sapiens, UniProt P48775). The assay can be described thus: Inhibition of recombinant human TDO assessed as N-formylkynurenine formation using L-tryptophan as substrate measured after 1 hrs by UV-vis spectrophotometric analysis.
In assay [4] the target is T1, Indoleamine 2,3-dioxygenase 1. The assay can be described thus: Inhibition of recombinant human IDO1 assessed as N-formylkynurenine formation using L-tryptophan as substrate measured after 1.5 hrs by HPLC analysis.

SMILES strings stand for the structures. pIC50: −log10 of the molar value.

Tryptophan 2,3-dioxygenase, sequence (P48775 whole entry): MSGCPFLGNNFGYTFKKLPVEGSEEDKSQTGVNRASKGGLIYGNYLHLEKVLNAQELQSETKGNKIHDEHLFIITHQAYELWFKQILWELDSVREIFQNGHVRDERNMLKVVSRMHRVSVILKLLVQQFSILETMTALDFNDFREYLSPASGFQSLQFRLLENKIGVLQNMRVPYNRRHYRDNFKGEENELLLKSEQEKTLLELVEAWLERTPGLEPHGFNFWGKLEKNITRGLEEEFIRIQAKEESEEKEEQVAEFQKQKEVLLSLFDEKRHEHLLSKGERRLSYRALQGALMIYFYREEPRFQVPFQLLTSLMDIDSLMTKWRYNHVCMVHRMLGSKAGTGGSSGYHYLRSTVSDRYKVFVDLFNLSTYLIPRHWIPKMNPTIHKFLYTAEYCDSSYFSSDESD
T1 sequence (P14902 whole entry): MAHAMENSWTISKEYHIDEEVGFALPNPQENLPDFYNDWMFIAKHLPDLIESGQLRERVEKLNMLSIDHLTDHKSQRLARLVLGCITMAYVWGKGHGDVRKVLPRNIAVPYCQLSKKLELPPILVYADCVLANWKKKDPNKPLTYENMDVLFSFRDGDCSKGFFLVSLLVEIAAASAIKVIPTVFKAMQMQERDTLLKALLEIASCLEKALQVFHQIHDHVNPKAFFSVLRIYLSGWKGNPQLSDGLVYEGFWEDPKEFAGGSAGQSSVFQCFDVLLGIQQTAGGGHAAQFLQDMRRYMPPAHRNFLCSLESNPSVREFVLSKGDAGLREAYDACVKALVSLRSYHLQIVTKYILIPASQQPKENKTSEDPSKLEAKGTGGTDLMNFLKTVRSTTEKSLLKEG

A word on the pIC50: it is −log10 of the IC50, conventionally taken in molar units. With `O=[N+]([O-])c1ccc(N/C(=N\O)c2cccc(Cl)c2)c2nonc12`, the negative-log IC50 (pIC50) in assay [1] was 6.74.

As to `O=[N+]([O-])c1ccc(N/C(=N\O)c2ccc(F)cc2)c2nonc12`, the pIC50 in assay [1] is 7.00; in assay [2] it was 6.90; in assay [3], 4.68; in assay [4], 7.22.

Regarding `O=[N+]([O-])c1ccc(N/C(=N\O)c2ccccc2Br)c2nonc12`, the pIC50 in assay [1] is 7.10; in assay [2] it was 7.18; in assay [3], 4.60; in assay [4] it was 7.19.

As to `O=[N+]([O-])c1ccc(N/C(Cc2cccc(F)c2)=N\O)c2nonc12`, the pIC50 in assay [1] was 6.88.

As to `Cc1ccc(/C(=N/O)Nc2ccc([N+](=O)[O-])c3nonc23)cc1`, the pIC50 in assay [1] was 6.69.

Consider `O=[N+]([O-])c1ccc(N/C(=N\O)c2cccc(F)c2)c2nonc12`, for which the pIC50 is 7.12 in assay [1], 6.61 in assay [2], 4.35 in assay [3] and 7.08 in assay [4].

Consider `O=[N+]([O-])c1ccc(N/C(=N\O)c2ccccc2)c2nonc12`, for which, in assay [1], the pIC50 was 6.57.

On to `Cc1cccc(/C(=N/O)Nc2ccc([N+](=O)[O-])c3nonc23)c1`, for which, in assay [1], the pIC50 is 6.79.

Regarding `O=[N+]([O-])c1ccc(N/C(=N\O)c2ccccc2F)c2nonc12`, the pIC50 in assay [1] was 7.20; in assay [2], 6.88; in assay [3], 3.96; in assay [4], 7.25.

For `O=[N+]([O-])c1ccc(N/C(=N\O)c2ccc(F)c(Br)c2)c2nonc12`, the pIC50 is 7.04 in assay [1], 6.97 in assay [2], 4.33 in assay [3] and 6.97 in assay [4].

With `Nc1nonc1C(=NO)Nc1ccc(F)c(Cl)c1`, the pIC50 in assay [3] was 4.62.

Take `O=[N+]([O-])c1ccc(N/C(Cc2ccccc2)=N\O)c2nonc12`: the pIC50 in assay [1] was 6.51.

`O=[N+]([O-])c1ccc(N/C(Cc2ccc(F)c(F)c2)=N\O)c2nonc12`: the pIC50 in assay [1] is 7.23; in assay [2], 7.30; in assay [3], 4.03; in assay [4], 7.31.

In the case of `O=[N+]([O-])c1ccc(N/C(Cc2ccc(Cl)c(Cl)c2)=N\O)c2nonc12`, the pIC50 in assay [1] is 7.41; in assay [2], 7.15; in assay [3], 4.49; in assay [4], 7.28.

In the case of `O=[N+]([O-])c1ccc(N/C(=N\O)c2ccc(Cl)cc2)c2nonc12`, the pIC50 in assay [1] was 6.95; in assay [3], 4.40.

In the case of `O=[N+]([O-])c1ccc(N/C(Cc2ccc(Cl)cc2)=N\O)c2nonc12`, the pIC50 in assay [1] is 6.90; in assay [2], 6.96; in assay [3], 4.29; in assay [4], 7.11.

`O=[N+]([O-])c1ccc(N/C(Cc2ccc(Br)cc2)=N\O)c2nonc12`: the figures for the pIC50 in assay [1] and in assay [3] were 6.95 and 4.37, respectively.

Consider `O=[N+]([O-])c1ccc(N/C(Cc2cccc(Cl)c2)=N\O)c2nonc12`, for which the pIC50 in assay [1] is 6.70.

Consider `O=[N+]([O-])c1ccc(N/C(=N\O)c2ccccc2Cl)c2nonc12`, for which the pIC50 in assay [1] was 6.87.

For the molecule `O=[N+]([O-])c1ccc(N/C(Cc2ccc(F)cc2)=N\O)c2nonc12`, the pIC50 is 7.01 in assay [1], 6.82 in assay [2], 4.19 in assay [3] and 7.14 in assay [4].

As for `COc1ccc(C/C(=N/O)Nc2ccc([N+](=O)[O-])c3nonc23)cc1`, the pIC50 in assay [1] was 6.89.

As to `O=[N+]([O-])c1ccc(N/C(=N\O)c2cccc(Br)c2)c2nonc12`, the pIC50 in assay [1] is 6.98; in assay [3], 4.70.

In the case of `O=[N+]([O-])c1ccc(N/C(Cc2ccccc2F)=N\O)c2nonc12`, the pIC50 in assay [1] is 6.99; in assay [2] it was 6.88; in assay [3] it was 4.52; in assay [4], 7.12.

Regarding `O=[N+]([O-])c1ccc(N/C(=N\O)c2ccc(Br)cc2)c2nonc12`, the pIC50 was 6.93 in assay [1] and 4.30 in assay [3].

`O=[N+]([O-])c1ccc(N/C(=N\O)c2ccc(F)c(Cl)c2)c2nonc12`: in assay [1], the negative logarithm of the IC50 (pIC50) was 6.80.

`O=[N+]([O-])c1ccc(N/C(Cc2ccc(F)cc2F)=N\O)c2nonc12`: the values for the pIC50 in assay [1] and in assay [3] were 6.80 and 4.72, respectively.

The record behind these values is ChEMBL document CHEMBL4715733, “Nitrobenzofurazan derivatives of N'-hydroxyamidines as potent inhibitors of indoleamine-2,3-dioxygenase 1” (Eur J Med Chem, 2016).
